We go through six molecules from ChEMBL document CHEMBL3102829, “Resveratrol oligomers inhibit biofilm formation of Escherichia coli O157:H7 and Pseudomonas aeruginosa” (J Nat Prod, 2014).

Structures are written as SMILES. Activity calls are given as the source filed them. The rule behind the calls is not given here. Some results are limits rather than exact numbers.

Data set [1] has as its system Pseudomonas aeruginosa. Kind of data set: Antibiofilm activity against Pseudomonas aeruginosa PA14 assessed as growth inhibition at 50 ug/ml by spectrophotometry. The format is functional, organism-based.
Data set [2] concerns Pseudomonas aeruginosa. As to the kind of experiment: Antibiofilm activity against Pseudomonas aeruginosa PA14 after 24 hrs by spectrophotometry. The data set is classed as functional, organism-based.
Data set [3] has as its system Pseudomonas aeruginosa. Kind of data set: Antibiofilm activity against Pseudomonas aeruginosa PA14 after 24 hrs by GFP-based confocal laser microscopy. The format is functional, organism-based.
In data set [4] the test system is Escherichia coli. As to the kind of experiment: Reduction in fimbriae production in Escherichia coli O157:H7 biofilm grown on nylon filter at 20 ug/ml after 24 hrs by scanning electron microscopy. The data set is classed as functional, organism-based.
Data set [5] deals with Escherichia coli. Kind of data set: Antibiofilm activity against Escherichia coli O157:H7 assessed as induction of qseB gene expression at 20 ug/ml after 5 hrs by qRT-PCR analysis. The data set is classed as functional, organism-based. A general note: In qPCR the cycle at which signal appears reflects the starting amount.
In data set [6] the test system is Escherichia coli. As to the kind of experiment: Antibiofilm activity against Escherichia coli O157:H7 assessed as induction of motB gene expression at 20 ug/ml after 5 hrs by qRT-PCR analysis. The data set is classed as functional, organism-based.
Data set [7] deals with Escherichia coli. Kind of data set: Antibiofilm activity against Escherichia coli O157:H7 assessed as induction of flhD gene expression at 20 ug/ml after 5 hrs by qRT-PCR analysis. The format is functional, organism-based.
In data set [8] the test system is Escherichia coli. Kind of data set: Antibiofilm activity against Escherichia coli O157:H7 assessed as induction of fliA gene expression at 20 ug/ml after 5 hrs by qRT-PCR analysis. The data set is classed as functional, organism-based.
The subject of data set [9] is Escherichia coli. Kind of data set: Antibiofilm activity against Escherichia coli O157:H7 assessed as effect on rrsG expression at 20 ug/ml after 5 hrs by qRT-PCR analysis. The data set is classed as functional, organism-based.
The test system of data set [10] is Escherichia coli. As to the kind of experiment: Antibiofilm activity against Escherichia coli O157:H7 assessed as repression of csgG expression at 20 ug/ml after 5 hrs by qRT-PCR analysis. The data set is classed as functional, organism-based.
The test system of data set [11] is Escherichia coli. As to the kind of experiment: Antibiofilm activity against Escherichia coli O157:H7 assessed as repression of csgF expression at 20 ug/ml after 5 hrs by qRT-PCR analysis. The format is functional, organism-based.
For data set [12], the system named is Escherichia coli. As to the kind of experiment: Antibiofilm activity against Escherichia coli O157:H7 assessed as repression of csgD expression at 20 ug/ml after 5 hrs by qRT-PCR analysis. The data set is classed as functional, organism-based.
The test system of data set [13] is Escherichia coli. Kind of data set: Antibiofilm activity against Escherichia coli O157:H7 assessed as repression of csgC expression at 20 ug/ml after 5 hrs by qRT-PCR analysis. The format is functional, organism-based.
The subject of data set [14] is Escherichia coli. Kind of data set: Antibiofilm activity against Escherichia coli O157:H7 assessed as repression of csgB expression at 20 ug/ml after 5 hrs by qRT-PCR analysis. The format is functional, organism-based.
In data set [15] the test system is Escherichia coli. As to the kind of experiment: Antibiofilm activity against Escherichia coli O157:H7 assessed as repression of csgA expression at 20 ug/ml after 5 hrs by qRT-PCR analysis. The format is functional, organism-based.
For data set [16], the system named is Escherichia coli. Kind of data set: Antimicrobial activity against Escherichia coli O157:H7 assessed as growth inhibition up to 50 ug/ml by spectrophotometry. The data set is classed as organism-based. To be noted: in vivo.
In data set [17] the test system is Escherichia coli. Kind of data set: Antibiofilm activity against Escherichia coli O157:H7 after 24 hrs by GFP-based confocal laser microscopy. The data set is classed as functional, organism-based.
The test system of data set [18] is Escherichia coli. As to the kind of experiment: Antibiofilm activity against Escherichia coli O157:H7 at 5 ug/ml after 24 hrs by spectrophotometry. The format is functional. The following applies: O157:H7, 24 h.
Data set [19] deals with Escherichia coli. As to the kind of experiment: Antibiofilm activity against Escherichia coli O157:H7 after 24 hrs by spectrophotometry. The data set is classed as functional, organism-based.
In data set [20] the test system is Escherichia coli. As to the kind of experiment: Antimicrobial activity against Escherichia coli O157:H7 by spectrophotometry. The data set is classed as organism-based. To be noted: in vivo.

A word on the inhibition: it is the drop in the measured response relative to a control, in per cent.

In the case of `Oc1ccc([C@H]2Oc3cc(O)cc(/C=C/c4ccc5c(c4)[C@@H](c4cc(O)cc6c4[C@H](c4cc(O)cc(O)c4)[C@@H](c4ccc(O)cc4)O6)[C@H](c4ccc(O)cc4)O5)c3[C@@H]2c2cc(O)cc(O)c2)cc1` [VITISIN B], in the data set on Pseudomonas aeruginosa [1], the inhibition result was “inactive”. Further, the inhibition result in the data set with Pseudomonas aeruginosa [2], in the data set on Escherichia coli [17] and with Escherichia coli [19] was “Dose-dependent effect” in each case. In the data set on Pseudomonas aeruginosa [3], the inhibition result is “Active”. Moreover, the result with Escherichia coli [4], with Escherichia coli [5], in the data set on Escherichia coli [6], with Escherichia coli [7], in the data set on Escherichia coli [8] and in the data set on Escherichia coli [10] was Active. Moreover, the result in the data set with Escherichia coli [11], in the data set with Escherichia coli [12], in the data set with Escherichia coli [13], in the data set on Escherichia coli [14] and in the data set with Escherichia coli [15] was Active. The outcome in the data set with Escherichia coli [9] was inactive. For the same molecule, the Activity entry with Escherichia coli [16] was “Non-toxic”. The inhibition at 5 µg/mL in the data set on Escherichia coli [18] is more than 90%.
Take `Oc1ccc([C@H]2c3c(O)cc(O)cc3[C@@H]3c4c(cc(O)c5c4[C@@H]2[C@@H](c2ccc(O)cc2)[C@@H]5c2cc(O)cc(O)c2)O[C@@H]3c2ccc(O)cc2)cc1` (relative stereo): the inhibition entry in the data set with Pseudomonas aeruginosa [2], with Escherichia coli [17] and in the data set on Escherichia coli [19] was “Dose-dependent effect” in each case. In addition, the inhibition entry in the data set with Pseudomonas aeruginosa [3] was “Active”. In addition, the result in the data set with Escherichia coli [5], with Escherichia coli [6], in the data set with Escherichia coli [7], with Escherichia coli [8] and in the data set on Escherichia coli [9] was inactive. For the same molecule, the result in the data set with Escherichia coli [10], in the data set on Escherichia coli [11], with Escherichia coli [12], in the data set with Escherichia coli [13], in the data set on Escherichia coli [14] and with Escherichia coli [15] was Active.
With `Oc1ccc([C@@H]2c3c(O)cc(O)cc3[C@@H]3c4c(cc(O)c5c4[C@@H]2[C@@H](c2ccc(O)cc2)[C@@H]5c2cc(O)cc(O)c2)O[C@@H]3c2ccc(O)cc2)cc1` (relative stereo), the inhibition entry in the data set with Pseudomonas aeruginosa [2], with Escherichia coli [17] and in the data set with Escherichia coli [19] was “Dose-dependent effect” each time. The inhibition entry with Pseudomonas aeruginosa [3] is “Active”. In addition, the result in the data set with Escherichia coli [5], with Escherichia coli [6], with Escherichia coli [7] and in the data set with Escherichia coli [8] was inactive.
As to `Oc1ccc(/C=C/c2cc(O)cc3c2[C@@H](c2cc(O)cc(O)c2)[C@H](c2ccc(O)cc2)O3)cc1` [EPSILON-VINIFERIN], the outcome in the data set with Escherichia coli [4], with Escherichia coli [10], in the data set on Escherichia coli [11], in the data set on Escherichia coli [12], in the data set on Escherichia coli [13] and in the data set on Escherichia coli [14] was Active. The outcome in the data set with Escherichia coli [15] was Active. Also, the outcome with Escherichia coli [5], in the data set with Escherichia coli [6], with Escherichia coli [7], in the data set on Escherichia coli [8] and in the data set with Escherichia coli [9] was inactive. The “growth inhibition (GI)” value in the data set on Escherichia coli [20] is reported as “Dose-dependent effect”. Further, in the data set on Escherichia coli [19], the inhibition entry is “Dose-dependent effect”.
For the molecule `Oc1ccc(/C=C/c2cc(O)cc(O)c2)cc1` [RESVERATROL], the inhibition entry with Pseudomonas aeruginosa [2] and with Pseudomonas aeruginosa [3] was “Active” in each case. Besides, the outcome in the data set with Escherichia coli [4], in the data set on Escherichia coli [10], with Escherichia coli [11], in the data set on Escherichia coli [12], in the data set on Escherichia coli [13] and with Escherichia coli [14] was Active. In the data set on Escherichia coli [15], the outcome was Active. Also, the result in the data set with Escherichia coli [9] was inactive. In addition, the “growth inhibition (GI)” value in the data set on Escherichia coli [20] is recorded as “Dose-dependent effect”. Further, the inhibition result with Escherichia coli [19] is “Dose-dependent effect”.
As for `Oc1ccc([C@H]2c3c(O)cc(O)cc3[C@H]3c4c(cc(O)cc4[C@@H]2c2cc(/C=C/c4cc(O)cc5c4[C@H](c4cc(O)cc(O)c4)[C@@H](c4ccc(O)cc4)O5)ccc2O)O[C@@H]3c2ccc(O)cc2)cc1` [VITISIN A], the inhibition result in the data set with Pseudomonas aeruginosa [2] was “Dose-dependent effect”. The inhibition entry in the data set on Pseudomonas aeruginosa [3] is “Active”. The outcome with Escherichia coli [5], with Escherichia coli [6], with Escherichia coli [7] and in the data set on Escherichia coli [8] was inactive. The Activity result in the data set on Escherichia coli [16] is recorded as “Non-toxic”. In addition, in the data set on Escherichia coli [19], the inhibition entry is “inactive”.
